Blank lines part the entries; values can stand above or below the molecule they belong to.
Columns and labels:
female NMRI mice = experiment: Anorectic action: cumulative milk consumption after removal of feed for 24 hours; assay type: in vivo; conditions: for cumulative milk consumption by treated animals: evaporated milk, monitored for 7 hours; for Reduction in cumulative milk consumption as % of the contol: vs control animals
Description: The anorectic action was tested on female NMRI mice. After removal of feed for 24 hours, the preparation to be tested was administered intraperitoneally (ip) or by gavage (po). The animals were housed singly and, with free access to drinking water, they were offered evaporated milk 30 minutes after administration of the preparation. The consumption of evaporated milk was determined and the general behavior of the animals was monitored every half an hour for 7 hours. The measured milk consumption was compared to that of vehicle-treated control animals.

Structure (SMILES): CS(=O)(=O)C1Cc2cc(Cl)ccc2C1=O (stereo not shown) [Example 2, 5-Chloro-2-methanesulfonylindan-1-one]
- cumulative milk consumption by treated animals (female NMRI mice; 20 mg/kg ip): 05/1.16 ml
- Reduction in cumulative milk consumption as % of the contol (female NMRI mice; 20 mg/kg ip): 70%

Structure (SMILES): O=C1c2ccc(Cl)cc2CC1Sc1ccccc1 (stereo not shown) [Example 3, 5-chloro-2-phenylsulfanylindan-1-one]
- melting point: 89 °C

Second part, led by results:

- melting point: 90 °C
Structure (SMILES): CSC1Cc2cc(Cl)ccc2C1=O (stereo not shown) [Example 1, 5-Chloro-2-methylsulfanylindan-1-one]
- cumulative milk consumption by treated animals (female NMRI mice; 10 mg/kg ip): 05/1.20 ml
- Reduction in cumulative milk consumption as % of the contol (female NMRI mice; 10 mg/kg ip): 64%

- melting point: 228.87 °C
Structure (SMILES): C[S+]([O-])C1Cc2cc(Cl)ccc2C1=O (stereo not shown) [Example 9, 5-chloro-2-methanesulfinylindan-1-one]
- cumulative milk consumption by treated animals (female NMRI mice; 50 mg/kg po): 05/1.16 ml
- Reduction in cumulative milk consumption as % of the contol (female NMRI mice; 50 mg/kg po): 73%

- melting point: 133 °C
Structure (SMILES): O=C1c2ccc(Cl)cc2CC1S(=O)(=O)c1ccccc1 (stereo not shown) [Example 4, 2-benzenesulfonyl-5-chloroindan-1-one]
